We go through two compounds from patent publication US5886178A, “3-aroylbenzylpyridazinone derivatives” (Syntex (U.S.A.) Inc., priority 1997, dated 1999).

For assay [1], the system named is prostaglandin E2 synthesis. The assay is described as follows: Inhibition of eicosanoid (PGE2) synthesis in vivo, carrageenan air-pouch model in rats. Set-up: species or system rat. Particulars: oral, male rats. How it is done: In this assay, an air-pouch is created in the rat and the PGE2 levels in the air-pouch exudate are measured by enzyme immunoassay. Briefly, male rats were anesthetized using a 60:40 CO2 :O2 mixture and subsequently injected subcutaneously with 20 ml of sterilized air, under aseptic conditions, in the proximal area of the dorsum. This injection of sterile air causes the creation of a subcutaneous "air pouch". The next day, a further 10 ml of sterile air was injected into the previously formed pouch using the same technique. […] Control rats received vehicle alone. After 30 minutes, 5 ml of a 0.5% solution of carrageenan (Sigma, Lambda Type IV) was injected into the air pouch. The rats were euthanized 3 hr after the compound administration. […] The total exudate volume was recorded, and the samples were analyzed for PGE2 and 6-keto PGF1 by ELISA (Titerzyme®, PerSeptive Diagnostics) and TxB2 by radioimmuno assay (New England Nuclear Research, Catalog No. NEK-037), according to the manufacturer's directions.
The mean concentrations of PGE2 were calculated for each group. The anti-inflammatory activity of test materials is expressed as the percent inhibition of PGE2 formation in the test group relative to the control group.

The conditions of assay [2]: Alzheimer's patients; Rogers, J., et. al., Neurology, (1993), 43, 1609; cited from earlier work.
The nature of assay [3]: Carrageenan-induced paw edema in the rat (anti-inflammatory activity). Type of assay: in vivo. The settings on record: 3 h, 10 mg/Kg, oral, female rats, read-out: % inhibition of increase in hind paw weight. How it is done: The anti-inflammatory activity of compounds of this invention was determined by measuring the inhibition of carrageenan-induced paw edema in the rat, using a modification of the method described in Winter C. k et al (1962) "Carrageenan-Induced Edema in Hind Paw of the Rat as an Assay for Anti-inflammatory Drugs". Proc. Soc. Exp. Biol. Med. 111: 544-547. This assay has been used as a primary in vivo screen for anti-inflammatory activity of most NSAIDs, and is considered predictive of human efficacy. Briefly, test materials were administered orally to female rats in a volume of 1 ml prepared as solutions or suspensions in an aqueous vehicle containing 0.9% NaCl, 0.5% sodium carboxymethyl-cellulose, 0.4% polysorbate 80, 0.9% benzyl alcohol and 97.3% distilled water. Control rats received vehicle alone. After 1 hr 0.05 ml of a 0.5% solution of Carrageenan (Type IV Lambda, Sigma Chemical Co.) in 0.9% saline was injected into the subplantar region of the right hind paw. Three hours later the rats were euthanized in a carbon dioxide atmosphere; hind paws were removed by severing at the tatso-crural joint; and the left and right paws were weighed. The increase in weight of the right paw over the left paw was obtained for each animal and the mean increases were calculated for each group. The anti-inflammatory activity of the test materials is expressed as the percent inhibition of the increase in hind paw weight of the test group relative to the vehicle-dosed control group.
The anti-inflammatory activities (expressed as % inhibition) of some of the compounds of the invention were: […]
On the technique in general: In the carrageenan paw model, swelling and tenderness develop within hours.

Assay [4] can be described thus: Acetic Acid-induced Rat Writhing Assay (analgesic activity). Type of assay: in vivo. Particulars: 10 mg/Kg, oral, male Sprague Dawley rats. From the text: The analgesic activity of compounds of this invention may be determined by the Acetic Acid-induced Rat Writhing Assay, using a modification of the method described in Berkenkopf, J. W. and Weichman, B. M. "Production of Prostacyclin in Mice following Intraperitoneal Injection of Acetic Acid, Phenylbenzoquinone and Zymosan: Its Role in the Writhing Response". Prostaglandins: 36: 693-70 (1988). This assay is one of several acute assays which have been used to assess the analgesic activity of NSAIDs, and is considered predictive of human efficacy. The test materials were administered orally to male Sprague Dawley rats in a volume of 1 ml/100 g body weight as solutions or suspensions in an aqueous vehicle containing 0.9% NaCl, 0.5% sodium carboxymethyl-cellulose, 0.4% polysorbate 80, 0.9% benzyl alcohol and 97.3% water. Control rats received vehicle alone. One hour after compound administration, 0.3 ml/100 g body weight of 0.75% solution of acetic acid was injected intraperitoneally. The acetic acid injection induces a series of characteristic writhing responses, which were counted over the period between 15 and 30 minutes after the injection. The analgesic activity of test materials is expressed as the percentage inhibition of writhing in the test group relative to the control group.

A further assay has as its target COX I (Homo sapiens, UniProt P23219). Put plainly: Inhibition of COX I in vitro, partially purified enzyme, radiometric assay. Further details: made in house. Particulars: 20 micromolar arachidonic acid. Type of assay: biochemical. How it is done: (§1) The COX I and COX II inhibitory activity of compounds of this invention in vitro was determined using partially purified COX I and COX II enzymes, prepared as described in J. Barnett et al, Biochim. Biophys.
(§2) COX I and COX II samples were diluted with Tris-HCl buffer (50 mM Tris-HCl, pH 7.9) containing 2 mM EDTA and 10% glycerol and reconstituted by incubating first with 2 mM phenol for 5 minutes and then with 1 micromolar hematin for an additional 5 minutes. 125 μl of the reconstituted COX I or COX II enzyme were preincubated for 10 minutes at room temperature in a shaking water bath with the compounds of the invention dissolved in 2-15 μl of DMSO or the carrier vehicles (control samples). The enzyme reaction was initiated by adding 25 μl of 1-[14C]arachidonic acid (80,000-100,000 cpm/tube; 20 micromolar final concentration) and the reaction was allowed to continue for an additional 45 seconds. The reaction was terminated by adding 100 μl of 2N HCl and 750 μl water. An aliquot (950 μl) of the reaction mixture was loaded onto a 1 ml C18 Sep-Pak column (J. T. Baker, Phillipsburg, N.J.) which had been previously washed with 2-3 ml methanol and equilibrated with 5-6 ml distilled water. Oxygenated products were quantitatively eluted with 3 ml of acetonitrile/water/acetic acid (50:50:0.1, v/v) and the radioactivity in the eluate determined in a scintillation counter.

For another assay, the target named is T1, COX II (Homo sapiens, UniProt P35354).
T1 sequence (P35354 18-604): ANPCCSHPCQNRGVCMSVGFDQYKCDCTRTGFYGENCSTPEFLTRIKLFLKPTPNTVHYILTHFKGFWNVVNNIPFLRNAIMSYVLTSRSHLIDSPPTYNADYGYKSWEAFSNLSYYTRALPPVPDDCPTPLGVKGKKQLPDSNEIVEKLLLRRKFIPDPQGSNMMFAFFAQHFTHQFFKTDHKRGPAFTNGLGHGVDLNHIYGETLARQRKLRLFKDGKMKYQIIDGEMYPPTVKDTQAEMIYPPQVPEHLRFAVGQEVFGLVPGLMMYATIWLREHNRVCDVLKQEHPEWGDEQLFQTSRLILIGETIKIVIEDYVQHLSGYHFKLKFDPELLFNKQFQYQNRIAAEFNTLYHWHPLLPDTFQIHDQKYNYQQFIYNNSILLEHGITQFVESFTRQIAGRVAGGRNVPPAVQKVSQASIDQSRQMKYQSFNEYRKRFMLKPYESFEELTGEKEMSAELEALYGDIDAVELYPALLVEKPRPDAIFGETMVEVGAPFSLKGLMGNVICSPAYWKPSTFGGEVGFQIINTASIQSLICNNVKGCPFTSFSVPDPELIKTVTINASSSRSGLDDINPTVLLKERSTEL
Put plainly: Inhibition of COX II in vitro, partially purified enzyme, radiometric assay. Type of assay: biochemical. Further details: made in house. The settings on record: 20 micromolar arachidonic acid. As to the method:
as §1, §2

SMILES strings stand for the structures. pIC50: −log10 of the molar value.

COX I, sequence (P23219 24-599): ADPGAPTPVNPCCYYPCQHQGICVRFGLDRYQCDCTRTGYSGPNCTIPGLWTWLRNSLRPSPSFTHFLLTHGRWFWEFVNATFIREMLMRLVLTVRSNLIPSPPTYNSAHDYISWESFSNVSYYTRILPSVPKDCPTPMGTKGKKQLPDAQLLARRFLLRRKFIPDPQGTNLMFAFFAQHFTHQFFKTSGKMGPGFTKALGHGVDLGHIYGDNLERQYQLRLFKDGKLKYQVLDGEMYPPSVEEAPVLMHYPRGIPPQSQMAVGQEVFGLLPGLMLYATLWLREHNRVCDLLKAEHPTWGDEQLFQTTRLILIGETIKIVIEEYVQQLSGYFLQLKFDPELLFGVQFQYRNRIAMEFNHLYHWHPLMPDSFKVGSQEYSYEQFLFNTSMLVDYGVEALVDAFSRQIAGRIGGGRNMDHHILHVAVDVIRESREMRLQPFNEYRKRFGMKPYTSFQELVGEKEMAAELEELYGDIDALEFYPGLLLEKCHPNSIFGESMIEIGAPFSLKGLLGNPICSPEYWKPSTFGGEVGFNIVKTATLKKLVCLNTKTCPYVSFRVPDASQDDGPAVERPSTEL

As for `COc1ccc2c(c1)c(CC(=O)O)c(C)n2C(=O)c1ccc(Cl)cc1` [Indomethacin, reference compound], in assay [1] (2-5 mg/Kg), the “% inhibition of air pouch PGE2 formation” value is on record as above 70%. Also, in assay [2], the “effect on cognitive decline” value is recorded as “inhibit the cognitive decline of Alzheimer's patients”.

For orientation: pIC50 means the negative decadic logarithm of the IC50, by convention in mol/L. Read a low pIC50 as a high IC50. For the compound `COc1ccc(C(=O)c2cccc(Cc3ccc(=O)[nH]n3)c2Cl)cc1` [Cpd 2, 6-[3-(4-methoxybenzoyl)-2-chlorobenzyl]-2H-pyridazin-3-one], in assay [3], the inhibition in vivo at 10 mg/kg came to 20%. For the same compound, the “% inhibition of air pouch PGE2 formation” value in assay [1] (10 mg/Kg) was 32%. The “% inhibition of writhing responses” value in assay [4] is recorded as 9%. In addition, the pIC50 on COX I was 4.24; at COX II, 7.00.
